The target in this test is HIV-1 reverse transcriptase (RT35A, wild type) (Human immunodeficiency virus type 1 group M subtype B, UniProt P03366). The experiment in a line: JDAM dual activity monitor RT activity assay. It counts as biochemical. The conditions noted are these: for ligand efficiency: LE = -RTln(IC50)/NHA.

For `NCc1ccc(OC(F)(F)F)cc1` [compound 2, 4-(trifluoromethoxy)benzylamine], where the note is “at 1 mM, JDAM assay”, the “inhibition (in words)” value is on record as “no detectable inhibition”.

`CN(CC(=O)N1CCCc2ccccc21)Cc1nc(=O)c2ccccc2[nH]1` [compound 8, 2-(((2-(3,4-dihydroquinolin-1(2H)-yl)-2-oxoethyl)(methyl)amino)methyl)quinazolin-4(1H)-one]: the ligand efficiency is given as 0.19 kcal/mol●NHA.

`CCOC(=O)c1cnn2ccccc12` [compound 1, ethyl pyrazolo[1,5-a]pyridine-3-carboxylate]: the ligand efficiency was found to be 0.34 kcal/mol●NHA.

In turn, `Oc1ccc(OC(F)(F)F)cc1` [compound 3, 4-(trifluoromethoxy)phenol] showed a ligand efficiency of 0.37 kcal/mol●NHA.

The record behind these values is article PMC3906421 (Journal of medicinal chemistry, 2013).
